Reference: ChEMBL document CHEMBL3817842, “Structure-based optimization and derivatization of 2-substituted quinolone-based non-nucleoside HCV NS5B inhibitors with submicromolar cellular replicon potency” (Bioorg Med Chem Lett, 2016)
Active and inactive are the calls of the source. The rule behind the calls is not given here.

Tests used:
[1] = test system: Hepatitis C virus; experiment: Antiviral activity against HCV genotype 2a JFH1 infected in human Huh7.5.1 cells at 5 uM incubated for 72 hrs by GFP based J399EAM HCV reporter assay; type: functional, Hepacivirus hominis; conditions: for inhibition at 5 µM: subtype 2a JFH1, Huh-7, 72 h; for inhibition: Hepacivirus hominis, subtype 2a JFH1, Huh-7
[2] = Cytotoxicity against human Huh7.5.1 cells infected with human HCV genotype 2a JFH1 assessed as cell viability at 5 uM incubated for 72 hrs by MTT assay; type: cell-based, Huh-7; conditions: Huh7.5.1 cells infected with HCV genotype 2a JFH1, read-out: Activity
[3] = test system: Hepatitis C virus; experiment: Antiviral activity against HCV genotype 2a JFH1 infected in human Huh7.5.1 cells incubated for 72 hrs by GFP based J399EAM HCV reporter assay; type: functional, organism-based, Hepacivirus hominis; conditions: subtype 2a JFH1, Huh-7, 72 h
[4] = Cytotoxicity against human Huh7.5.1 cells infected with human HCV genotype 2a JFH1 incubated for 72 hrs by MTT assay; type: cell-based, Huh-7; conditions: Huh7.5.1 cells infected with HCV genotype 2a JFH1
[5] = Selectivity index, ratio of CC50 for human Huh7.5.1 cells infected with human HCV genotype 2a JFH1 to EC50 for HCV genotype 2a JFH1 infected in human Huh7.5.1 cells; design: species or system Huh-7

Row | EC50 [3] [µM] | Compound | inhibition at 5 µM [1] [%] | viability at 72 h, 5 µM [2] [%] | CC50 at 72 h [4] [µM] | Ratio CC50/EC50 [5] | inhibition [1]
1 | – | Cc1ccc(C(=O)Nc2ccc(-n3ccc(=O)c4c(=O)n(Cc5ccc(Cl)cc5)ccc43)cc2)o1 | 42.6 | 88 | – | – | –
2 | – | O=c1ccn(-c2ccc([N+](=O)[O-])cc2C(F)(F)F)c2ccn(Cc3ccc(Cl)cc3)c(=O)c12 | 58.6 | 88.2 | – | – | –
3 | 1.4 | O=C(Nc1ccc(-n2ccc(=O)c3c(=O)n(Cc4ccc(Cl)cc4)ccc32)c(C(F)(F)F)c1)c1cc(F)ccc1F | 98.2 | 38.4 | 1.5 | 1.1 | –
4 | – | Cc1cc(NC(=O)c2ccccc2F)ccc1-n1ccc(=O)c2c(=O)n(Cc3ccc(Cl)cc3)ccc21 | 55.2 | 72.6 | – | – | –
5 | 4.9 | COCc1c(C(=O)OCc2ccc(Cl)cc2)c(=O)c2cc(F)c(N3CCN(Cc4ccccc4)CC3)cc2n1Cc1ccc(Cl)cc1 | – | – | > 40 | >8.2 | –
6 | – | Nc1ccc(-n2ccc(=O)c3c(=O)n(CC4CCCCC4)ccc32)cc1C(F)(F)F | 7.7 | 100 | – | – | –
7 | – | Nc1ccc(-n2ccc(=O)c3c(=O)n(Cc4ccc(Cl)cc4)ccc32)cc1 | 39.8 | 94.6 | – | – | –
8 | 3.7 | CCc1c(C(=O)OCc2ccc(Cl)cc2)c(=O)c2cc(F)c(OC)cc2n1Cc1ccc(Cl)cc1 | – | – | 26.8 | 7.2 | –
9 | 2.02 | CN1CCN(c2c(F)cc3c(=O)c(C(=O)OCc4ccc(Cl)cc4)c(-c4ccc(F)cc4)n(C4CC4)c3c2F)CC1 | – | – | 13.2 | 5.5 | –
10 | – | Cc1cc(NC(=O)Nc2ccc(F)cc2)ccc1-n1ccc(=O)c2c(=O)n(Cc3ccc(Cl)cc3)ccc21 | 53.1 | 70.4 | – | – | –
11 | 4.6 | O=C(Nc1ccc(-n2ccc(=O)c3c(=O)n(Cc4ccc(Cl)cc4)ccc32)cc1)c1cc(F)ccc1F | 95.7 | 46.1 | 6.4 | 1.4 | –
12 | 7.2 | Cc1c(C(=O)OCc2ccc(Cl)cc2)c(=O)c2cc(F)c(N3CCN(C)CC3)cc2n1Cc1ccc(Cl)cc1 | – | – | 33.1 | 4.6 | –
13 | 2.4 | COc1cc2c(cc1F)c(=O)c(C(=O)OCc1ccc(Cl)cc1)c(C)n2Cc1ccc(Cl)cc1 | – | – | > 40 | >16.7 | –
14 | – | O=C(Nc1ccc(F)cc1)Nc1ccc(-n2ccc(=O)c3c(=O)n(Cc4ccc(Cl)cc4)ccc32)cc1 | 18.8 | 98.4 | – | – | –
15 | – | Nc1ccc(-n2ccc(=O)c3c(=O)n(Cc4ccc(Cl)cc4)ccc32)c(C(F)(F)F)c1 | 43.8 | 84.8 | – | – | –
16 | – | Nc1ccc(-n2ccc(=O)c3c(=O)n(Cc4ccccc4)ccc32)cc1C(F)(F)F | – | 96.8 | – | – | inactive
17 | – | Nc1ccc(-n2ccc(=O)c3c(=O)n(CC4CC=CC4)ccc32)cc1C(F)(F)F | – | 100 | – | – | inactive
18 | 11.1 | COCc1c(C(=O)OCc2ccc(Cl)cc2)c(=O)c2cc(F)c(OC)cc2n1Cc1ccc(Cl)cc1 | – | – | > 40 | >3.6 | –
19 | 4.3 | CN1CCN(c2cc3c(cc2F)c(=O)c(C(=O)OCc2ccc(Cl)cc2)cn3Cc2ccc(Cl)cc2)CC1 | – | – | > 40 | >9.3 | –
20 | 4.8 | O=c1ccn(-c2ccc([N+](=O)[O-])c(C(F)(F)F)c2)c2ccn(Cc3ccc(Cl)cc3)c(=O)c12 | 65.7 | 75.6 | 10.6 | 2.2 | –
21 | 0.4 | COCc1c(C(=O)OCc2ccc(Cl)cc2)c(=O)c2cc(F)c(N3CCN(C)CC3)cc2n1Cc1ccc(Cl)cc1 | – | – | 4.3 | 10.8 | –
22 | – | Cc1ccc(Cn2ccc3c(c(=O)ccn3-c3ccc(N)c(C(F)(F)F)c3)c2=O)cc1 | 38.7 | 100 | – | – | –
23 | 2.5 | Nc1ccc(-n2ccc(=O)c3c(=O)n(Cc4ccc(Cl)cc4)ccc32)cc1C(F)(F)F | 78.9 | 74.3 | 17.9 | 7.2 | –
24 | – | O=C(Nc1ccc(-n2ccc(=O)c3c(=O)n(Cc4ccc(Cl)cc4)ccc32)cc1)c1ccccn1 | 41.7 | 88.7 | – | – | –
25 | – | N#Cc1ccc(-n2ccc(=O)c3c(=O)n(Cc4ccc(Cl)cc4)ccc32)cc1C(F)(F)F | – | 86.4 | – | – | inactive
26 | – | Cc1ccc(Cn2ccc3c(c(=O)ccn3-c3ccc(N)c(C(F)(F)F)c3)c2=O)c(C)c1 | 51.7 | 99.8 | – | – | –
27 | – | O=C(Nc1ccc(-n2ccc(=O)c3c(=O)n(Cc4ccc(Cl)cc4)ccc32)cc1)c1ncccc1Cl | 52.3 | 68.6 | – | – | –
28 | – | O=C(Nc1ccc(F)cc1)Nc1ccc(-n2ccc(=O)c3c(=O)n(Cc4ccc(Cl)cc4)ccc32)c(C(F)(F)F)c1 | 33.4 | 75.4 | – | – | –
29 | – | Cc1cc(N)ccc1-n1ccc(=O)c2c(=O)n(Cc3ccc(Cl)cc3)ccc21 | 52 | 91.6 | – | – | –
30 | 6.4 | Nc1ccc(-n2ccc(=O)c3c(=O)n(Cc4ccc(Cl)cc4)ccc32)cc1Cl | 68 | 79.2 | 19.4 | 3 | –
